Source: patent US20230355646A1, “AUTOPHAGY ACTIVATOR” (Resonac Corporation, priority 2020, published 2023)

Test system: human neuroblastoma (SH-SY5Y)
Experiment: Apoptosis suppressing action caused by amyloid β in human neuroblastoma (Hoechst 33342 staining)
Type: cell-based
Method: The proportion of apoptotic cells in human neuroblastoma (SH-SY5Y; obtained from ATCC) in the presence of an autophagy activator was measured by the following test method to evaluate the apoptosis suppressing action of the autophagy activator.
In the following examples and comparative examples, tests were performed by adding amyloid β, which is known to induce cell death called apoptosis of nerve cells due to a decrease in autophagy, to each medium.
SH-SY5Y cells were prepared at a seeding density of 50000 cells/cm^2 and cultured for 24 hours in D-MEM medium/Ham's F-12 medium (manufactured by Sigma-Aldrich) to which 10% fetal bovine serum (manufactured by MP Biomedicals) was added. […]
Thereafter, an aqueous solution of 10 μM Hoechst 33342 (manufactured by Sigma-Aldrich) was added to each SH-SY5Y cell from which the medium was removed, and the cells were allowed to stand at room temperature (25° C.) for 10 minutes. After removing the solution, each SH-SY5Y cell was washed with phosphate buffer (PBS, manufactured by Wako Pure Chemical Industries, Ltd.), and with a fluorescence microscope, the number of cells showing strong apoptosis-like Hoechst fluorescence due to chromatin aggregation (Hoechst (+) cells) was counted. […]

COc1ccc([C@@H]2CC(=O)c3c(O)cc(O[C@@H]4O[C@H](CO[C@@H]5O[C@@H](C)[C@H](O)[C@@H](O)[C@H]5O)[C@@H](O)[C@H](O)[C@H]4O)cc3O2)cc1O [Comparative Example 2, hesperidin]
proportion of apoptotic cells (in words) (SH-SY5Y cells with amyloid β, compared to DMSO and amyloid β of Comparative Example 7): decreased | Proportion of apoptotic cells (SH-SY5Y cells, 30 μM amyloid β present, 10^−2% (V/V) methyl hesperidin or hesperidin, additional ingredient where in the example, 48 hours, relative value, Reference Example 4 = 1.00): 3.76
